Results published in patent publication US7067656B2, “Sulfamoyl compounds and agricultural and horticultural fungicides” (Nissan Chemical Industries, Ltd., priority 1997, dated 2006).

| melting point [°C] | Structure (SMILES) |
| --- | --- |
| 120 to 122 | Cc1c(Cl)c2ccccc2n1S(=O)(=O)c1ncn(S(=O)(=O)N(C)C)n1 [1-33(a), 1-(N,N-dimethylsulfamoyl)-3-(2-methyl-3-chloroindol-1-yl)sulfonyl-1,2,4-triazole] |
| 164 to 165 | CN(C)S(=O)(=O)n1cnc(S(=O)(=O)n2nc(Cl)c3ccccc32)n1 [7-5(a), 1-(N,N-dimethylsulfamoyl)-3-(3-chloroindazol-1-yl)sulfonyl-1,2,4-triazole] |
| 125 to 128 | Cc1c(Cl)c(-c2ccccc2)nn1S(=O)(=O)c1ncn(S(=O)(=O)N(C)C)n1 [8-11(a), 1-(N,N-dimethylsulfamoyl)-3-(3-phenyl-4-chloro-5-methylpyrazol-1-yl)sulfonyl-1,2,4-triazole] |
| 121 to 122 | CN(C)S(=O)(=O)n1cnc(C(=O)c2ccc(C(F)(F)F)cc2)n1 [11-19(a), 1-dimethylsulfamoyl-3-(4-trifluoromethylbenzoyl)-1,2,4-triazole] |
